Test results from patent publication US20080166323A1, “Activators of Hexosamine Biosynthesis as Inhibitors of Injury Induced by Ischemia or Hermorrhagic Shock” (UAB RESEARCH FOUNDATION, priority 2004, published 2008).
Structures can show the parent of a compound that is named as a salt.

What was measured:
perfused hearts = assay: calcium paradox in perfused hearts (Langendorff); parameters: species or system rat
Description: The effect of short-term hyperglycemia (2-5 days) on the calcium paradox was explored. The protocol (a 30-minute stabilization after hanging the heart on a Langendorff apparatus, a Ca^2+-free buffer for 10 min, a buffer containing 1.25 mM Ca^2+ buffer for 15 min) was initially applied to perfused hearts from control rats. When calcium was removed from the perfusate, the heart gradually ceased beating (FIG. 2A), although no protein loss from the heart was detected (FIG. 3C). […] The decrease in left ventricular […] pressure (LVDP) and an elevation in end diastolic pressure (EDP), as well as protein loss and blanching signaled the transition to a “stone heart” (Zimmerman, Cardiovasc Res (2000) 45(1):119-121) in hearts from all control animals examined.
Azaserine (AZA), the inhibitor of GFAT and HBP flux (Marshall, et al., J Biol Chem (1991) 266(8):4706-4712), negated the effects of hyperglycemia, restoring sensitivity to the paradox in 3 of 7 hearts (FIG. 2B). […] This decreased somewhat the protection seen with hyperglycemia, but made the reversal seen with azaserine more pronounced (FIGS. 2B and 3).
To confirm the involvement of the HBP in the protection due to hyperglycemia, a complementary series of experiments at a final Ca^2+ concentration of 1.25 mM were performed.
An independent mechanism of increasing metabolites in the HBP is to provide the heart with free fatty acids (Hawkins, et al., J Clin Invest (1997) 99(9):2173-2182). This occurs because of the “glucose-sparing” effect, a rapid block on the entry of glucose into the glycolytic pathway because of an inhibition of phosphofructokinase. […] In addition, SKF96365 (also known as 1-[β-[3-(4-methoxyphenyl)propoxy]-4-methoxyphenethyl]-1H-imidazole, HCl; available from Calbiochem, San Diego, Calif.) as an independent means of blocking the channels responsible for CCE was utilized (Putney, Capacitative Calcium Entry (1997) Austin: Landes Biomedical). This too was at least partially effective in 4 of 6 animals (FIG. 4).

human = details: in vivo; cited from earlier work
[1] = tested on: animal models of ischemia/reperfusion; details: in vivo; cited from earlier work
hemorrhagic shock = details: in vivo; cited from earlier work
isolated cardiomyocyte = details: cited from earlier work
isolated rat heart = details: administered prior to ischemia or just prior to reperfusion; cited from earlier work

## CN(N=O)C(=O)N[C@H]1C(O)O[C@H](CO)[C@@H](O)[C@@H]1O (mixture of isomers) [streptozotocin]
Perfused hearts; hearts from animals made hyperglycemic by STZ treatment (2-5 days), 10 min Ca2+-free, 1.25 mM Ca2+ readdition
  hearts demonstrating almost complete protection in the calcium paradox: 7 of 7

## [N-]=[N+]=CC(=O)OC[C@H](N)C(=O)O [Azaserine]
Perfused hearts; hearts from STZ hyperglycemic animals treated with azaserine
  hearts in which sensitivity to the calcium paradox was restored (effects of hyperglycemia negated): 3 of 7

## O=C(COP(=O)(O)O)[C@@H](O)[C@H](O)[C@H](O)COP(=O)(O)O [FBP, fructose-1,6-bisphosphate]
human
  outcomes in human studies: improved outcomes
[1]
  protection in animal models of ischemia/reperfusion: protective
Hemorrhagic shock
  protection in hemorrhagic shock: protective

## COc1ccc(CCCOC(Cn2ccnc2)c2ccc(OC)cc2)cc1 (stereo not drawn) [SKF96365, 1-[β-[3-(4-methoxyphenyl)propoxy]-4-methoxyphenethyl]-1H-imidazole, HCl]
Perfused hearts; final Ca2+ 1.25 mM
  animals in which treatment was at least partially effective in the calcium paradox: 4 of 6

## NC(=O)CC[C@H](N)C(=O)O [glutamine]
Isolated cardiomyocyte
  protection in isolated cardiomyocyte model: protective
Isolated rat heart
  protection in cardiac ischemia: remarkable protection
